Test results: patent US11471462B2, “Compositions and methods for detecting and treating diabetes” (THE BROAD INSTITUTE, INC., priority 2016, dated 2022)

Legend:
SLC16A13 = assay: Metabolic effectors on SLC16A13 transcript levels in SNU761 cells; format: cell-based, human; conditions: 24 hours, low and high concentrations
Method: (§1) FIG. 22 provides bar graphs showing the effects of low and high concentrations of metabolic effectors (oleic acid (OA), insulin and glucagon) on expression levels of SLC16A11 and SLC16A13 transcripts in SNU761 cells cultured for 24 hours in the presence of low/high concentrations of OA (0.3 mM/1.5 mM); insulin (100 nM/500 nM); or glucagon (100 nM/500 nM). Relative transcipt levels of SLC16A11 and SLC16A13 are shown, with 2-FBS (2% Fetal Bovine Serum) used as control.
(§2) FIG. 23 provides bar graphs showing the effects of low and high concentrations of pyruvate or lactate on expression levels of SLC16A11 and SLC16A13 transcripts in SNU761 cells cultured for 24 hours in the presence of 2 mM pyruvate (low), 10 mM pyruvate (high), 20 mM lactate (low), or 100 mM lactate (high). Relative transcipt levels of SLC16A11 and SLC16A13 are shown, compared with transcript levels in cell cultured in increasing concentrations of glucose.
(§3) To assess whether metabolic effectors regulated SLC16A11 and SLC16A13 transcript levels, endogenous transcripts in SNU761 cells (derived from a human hepatocellular carcinoma) were examined following exposure of the cells to different metabolic perturbations. SNU761 cells were cultured in the presence of various metabolic effectors for 24 hours after which time cell lysates were collected and the relative endogenous expression levels of SLC16A11 and SLC16A13 transcripts were assessed. The metabolic effectors included in the cell cultures included oleic acid (OA) at a low concentration (0.3 mM) or a high concentration (1.5 mM); insulin at a low concentration (100 nM) or a high concentration (500 nM) and glucagon at a low concentration (100 nM) and a high concentration (500 nM). Cells cultured in 2-FBS were used as a control. […] (FIG. 22). Similarly, SNU761 cells were cultured in the presence or absence of low or high concentrations of pyruvate or lactate in the culture medium for 24 hours after which time cell lysates were analyzed. In the cultures, low (L) pyruvate concentration was 2 mM; high (H) pyruvate concentration was 10 mM, and low lactate concentration was 20 mM, while high lactate concentration was 100 mM. […] (FIG. 23).

SLC16A11 [1] = assay: Metabolic effectors on SLC16A11 transcript levels in SNU761 cells; format: cell-based, human; conditions: 24 hours, low and high concentrations
Method: as §1, §2, §3

SLC16A11 [2] = assay: SLC16A11 protein-protein interaction study (immunoprecipitation, quantitative mass spectrometry); parameters: species or system human; conditions: putative SLC16A11^REF interaction partners; immunoprecipitation from HEK293T cells vs empty vector control; Blandt-Altman
Source text: Alternatively, these variants may result in reduced transport because they disrupt protein-protein interactions responsible for correct SLC16A11 function. To explore this possibility, SLC16A11 was immunoprecipitated from HEK293T cells expressing either REF or T2D risk SLC16A11-V5 or empty vector control and quantitative mass spectrometry was used to define the SLC16A11 interactome.
Another mechanism through which the variants could affect activity is through disruption of protein-protein interactions. To explore this possibility, quantitative mass spectrometry-based protein-protein interaction studies were performed to define the SLC16A11 interactome and evaluate if the T2D risk coding variants alter any interactions.
Beads were then washed once with lysis buffer and three times with wash buffer. After the last wash, residual wash buffer was removed, 10 μL fresh wash buffer was added, and beads were stored at −80° C. until analysis by the Proteomics Platform at the Broad Institute, as detailed in the “Proteomics Methods for SLC16A11 Protein Interaction Studies” below.
The beads from immunopurification were washed once with IP lysis buffer, then three times with PBS, the three different lysates of each replicate were resuspended in 90 uL digestion buffer (2M Urea, 50 mM Tris HCl), 2 ug of sequencing grade trypsin added, 1 hour shaking at 700 rpm. The supernatant was removed and placed in a fresh tube. The beads were then washed twice with 50 uL digestion buffer and combined with the supernatant. The combined supernatants were reduced (2 uL 500 mM DTT, 30 minutes, RT), alkylated (4 uL 500 mM IAA, 45 minutes, dark) and a longer overnight digestion performed: 2 ug (4 uL) trypsin, shake o/n, The samples were then quenched with 20 uL 10% FA and desalted on 10 mg SepPak columns.
Desalted peptides were labelled with iTRAQ reagents according to the manufacturer's instructions (AB Sciex, Foster City, Calif.). Peptides were dissolved in 30 μl of 0.5 M TEAB pH 8.5 solution and labeling reagent was added in 70 ul of ethanol. After 1 h incubation the reaction was stopped with 50 mM Tris/HCl pH 7.5. Differentially labelled peptides were mixed and subsequently desalted on 10 mg SepPak columns.
Reconstituted peptides were separated on an online nanoflow EASY-nLC 1000 UHPLC system (Thermo Fisher Scientific) and analyzed on a benchtop Orbitrap Q Exactive Plus mass spectrometer (Thermo Fisher Scientific). The peptide samples were injected onto a capillary column (Picofrit with 10 μm tip opening/75 μm diameter, New Objective, PF360-75-10-N-5) packed in-house with 20 cm C18 silica material (1.9 μm ReproSil-Pur C18-AQ medium, Dr. Maisch GmbH, r119.aq). The UHPLC setup was connected with a custom-fit microadapting tee (360 μm, IDEX Health & Science, UH-753), and capillary columns were heated to 50° C. in column heater sleeves (Phoenix-ST) to reduce backpressure during UHPLC separation. Injected peptides were separated at a flow rate of 200 nL/min with a linear 80 min gradient from 100% solvent A (3% acetonitrile, 0.1% formic acid) to 30% solvent B (90% acetonitrile, 0.1% formic acid), followed by a linear 6 min gradient from 30% solvent B to 90% solvent B. Each sample was run for 120 min, including sample loading and column equilibration times. The Q Exactive instrument was operated in the data-dependent mode acquiring HCD MS/MS scans (R=17,500) after each MS1 scan (R=70,000) on the 12 top most abundant ions using an MS1 ion target of 3×10^6 ions and an MS2 target of 5×10^4 ions. The maximum ion time utilized for the MS/MS scans was 120 ms; the HCD-normalized collision energy was set to 27; the dynamic exclusion time was set to 20 s, and the peptide match and isotope exclusion functions were enabled.
All mass spectra were processed using the Spectrum Mill software package v6.0 pre-release (Agilent Technologies) which includes modules developed by us for iTRAQ-based quantification. […]

SLC16A11 [3] = assay: CRISPR (SAM) transactivation assay, SLC16A11 expression in 293T cells; format: cell-based, human; conditions: Cas9-based transactivators (SAM) targeted near variant
Source text: These experiments are based upon Cas9 based transactivators (SAM or synergistic activation mediators) as described in Konermann et al (Nature 517: 583-588, 2015). Similar experiments based on other types of transactivators that are more finely tuned to distal activation such as those described in Hilton et al. (Nature 33:510-518, 2015) could also be envisioned. Cas9 was used to target transactivators to sites near individual variants in the credible set. Their ability to activate SLC16A11 gene expression was assessed (Table 10).
Cell lines derived from HEK293-T cells were established by lentivirus infection resulting in stable integration of two components of the SAM system namely dCas9-VP64 and MS2-p65-HSF1. The resulting stable cell lines were then plated into 96 well plates and left overnight. The next day, cells were transfected with the guide RNAs (pHKO23), the final component of the SAM system. After an additional 48 hours, cells were harvested for gene expression analyses.

CCCCCCCC/C=C\CCCCCCCC(=O)O [oleic acid]
SLC16A13 transcript levels (SLC16A13): increase
SLC16A11 transcript levels (SLC16A11 [1]): alter

ATP1B3
BA log fold change (SLC16A11 [2]): 1.18

BAG6
BA log fold change (SLC16A11 [2]): 1.08

DNAJB4
BA log fold change (SLC16A11 [2]): 1.08

EMB
BA log fold change (SLC16A11 [2]): 1.55

GCN1L1
BA log fold change (SLC16A11 [2]): 1.01

KIAA0368
BA log fold change (SLC16A11 [2]): 1.16

PSMA1
BA log fold change (SLC16A11 [2]): 1.20

PSMC3
BA log fold change (SLC16A11 [2]): 1.16

PSMD2
BA log fold change (SLC16A11 [2]): 0.98

PSMD11
BA log fold change (SLC16A11 [2]): 1.02

PSMD14
BA log fold change (SLC16A11 [2]): 1.31

RNF5
BA log fold change (SLC16A11 [2]): 1.42

SCFD1
BA log fold change (SLC16A11 [2]): 1.08

TUBA1B
BA log fold change (SLC16A11 [2]): 1.05

glucagon: metabolic effector (hormone)
SLC16A13 transcript levels (SLC16A13): alter
SLC16A11 transcript levels (SLC16A11 [1]): alter

insulin: metabolic effector (hormone)
SLC16A13 transcript levels (SLC16A13): alter
SLC16A11 transcript levels (SLC16A11 [1]): alter

rs2292351 (guide 1 AGCCTCTGGCTGCTCGCCCG; guide 2 CACCCCGGGCGAGCAGCCAG; listed as DNA, chemistry not given here; listed as Homo sapiens)
Increases SLC16A11 transcript levels in transactivator assay (SLC16A11 [3]): TRUE

rs4630597 (guide 1 GGTGCCTCAGATACCTGGTT; guide 2 AACCAGGTATCTGAGGCACC; listed as DNA, chemistry not given here; listed as Homo sapiens)
Increases SLC16A11 transcript levels in transactivator assay (SLC16A11 [3]): FALSE

rs17203120 (guide 1 CTTATTTGATTTTATCTCAA; guide 2 TTATTTGATTTTATCTCAAA; listed as DNA, chemistry not given here; listed as Homo sapiens)
Increases SLC16A11 transcript levels in transactivator assay (SLC16A11 [3]): FALSE

rs17203148 (guide 1 TCTGCCAATCTTGGCTCTGT; guide 2 GAAACCTACAGAGCCAAGAT; listed as DNA, chemistry not given here; listed as Homo sapiens)
Increases SLC16A11 transcript levels in transactivator assay (SLC16A11 [3]): FALSE

rs58223766 (guide 1 TCAGGAGTTCGAGACCATCC; guide 2 GATCCACCCCCCCCCCCCCT; listed as DNA, chemistry not given here; listed as Homo sapiens)
Increases SLC16A11 transcript levels in transactivator assay (SLC16A11 [3]): FALSE

rs73239895 (guide 1 ACTCCTGCCGGAGGTTCTCG; guide 2 AGGCCCCGAGAACCTCCGGC; listed as DNA, chemistry not given here; listed as Homo sapiens)
Increases SLC16A11 transcript levels in transactivator assay (SLC16A11 [3]): FALSE

rs74577409 (guide 1 ACCTGCCGCCTGCTGCGCGC; guide 2 CCCTGCGCGCAGCAGGCGGC; listed as DNA, chemistry not given here; listed as Homo sapiens)
Increases SLC16A11 transcript levels in transactivator assay (SLC16A11 [3]): TRUE

rs75075014 (guide 1 GGAAGTGGAGGAGAGTGTCC; guide 2 GGAGTCATGCCTGGAAGTGG; listed as DNA, chemistry not given here; listed as Homo sapiens)
Increases SLC16A11 transcript levels in transactivator assay (SLC16A11 [3]): FALSE

rs77552976 (guide 1 GAAAGGGCTGCCGTGCTGTT; guide 2 CCTGGCTGGACCTAACAGCA; listed as DNA, chemistry not given here; listed as Homo sapiens)
Increases SLC16A11 transcript levels in transactivator assay (SLC16A11 [3]): FALSE

rs78972129 (guide 1 GATGCTATGGTTGGCCACGC; guide 2 AGTACAGTACACAGCCTGCG; listed as DNA, chemistry not given here; listed as Homo sapiens)
Increases SLC16A11 transcript levels in transactivator assay (SLC16A11 [3]): FALSE

rs145952323 (guide 1 CAAAAATTAGCCGGGTGTGT; guide 2 CAGGCACACGCCAACACACC; listed as DNA, chemistry not given here; listed as Homo sapiens)
Increases SLC16A11 transcript levels in transactivator assay (SLC16A11 [3]): FALSE

rs186568031 (guide 1 GATTTTCACTCTTGTTGCCC; guide 2 TTCACTCTTGTTGCCCAGGC; listed as DNA, chemistry not given here; listed as Homo sapiens)
Increases SLC16A11 transcript levels in transactivator assay (SLC16A11 [3]): FALSE
